# Data: US20140357512A1, “HISTONE DEACETYLASE (HDAC) BIOMARKERS IN MULTIPLE MYELOMA” (priority 2013, published 2014)
# System: human myeloma cell line MM.1S
# Test: SILAC acetylated-lysine peptide profiling, HDAC inhibitor vs DMSO (light/heavy ratio)
# Format: cell-based
# From the text: An embodiment of the invention comprises utilizing the SILAC method in order to quantitate changes in protein expression between two or more populations of cells. The SILAC method is a technique based on mass spectrometry that detects differences in protein abundance among samples using non-radioactive isotopic labeling. The SILAC method is known in the art, and described in detail in Ong et al., “Stable Isotope Labeling by Amino Acids in Cell Culture, SILAC, as a Simple and Accurate Approach to Expression Proteomics”, Molecular & Cellular Proteomics, vol. 1, pp. 376-386 (2002), which is incorporated herein by reference in its entirety.
# Briefly, the SILAC method involves growing two populations of cells in cell culture. The first population of cells is grown in growth media containing normal amino acids (“normal media”). The second population of cells is grown in media lacking a standard essential amino acid (such as lysine), but is then supplemented with a non-radioactive, isotopically labeled form of that essential amino acid (such as lysine labeled with ^13C atoms, rather than normal ^12C atoms), which is called “heavy media”. When the two populations of cells are each growing in the medium, they incorporate the amino acids into all of their proteins. The growth of cells maintained in the heavy media is no different from that in normal media. All peptides containing the heavy amino acids are heavier than their normal counterparts. The cells from each of the two populations of cells are lysed. The lysates from each of the two cell populations are then combined. The combined cell lysates are then analyzed by mass spectrometry. Pairs of chemically identical peptides of different stable isotope composition can be differentiated in a mass spectrometer due to their difference in mass. The ratio of peak intensities in the mass spectrum for such peptide pairs reflects the abundance ratio for the two proteins.
# This example describes SILAC studies that were performed to compare the effects of three different HDAC inhibitors (Compound A, Compound B, and tubastatin A) to a control on a human multiple myeloma cell line. The HDAC inhibitors were also compared amongst themselves to determine differences in their effects.
# A human myeloma cell line MM.1S was grown using either ^12C (light) or ^13C (heavy) lysine containing culture medium. The “heavy” cells were treated with DMSO as the control, and the “light” cells were treated with a single HDAC inhibitor at 37° C. for 6 hours. The heavy and light cells were lysed, and the lysates were mixed in 1:1 ratio and digested with the protease trypsin. The acetylated lysine containing peptides (due to the action of the HDAC inhibitor) in the digested peptide pool were captured by a non-specific anti-acetylated lysine antibody cocktail (the antibodies identify both light and heavy acetylated peptides), and subjected to mass spectrometry analysis in order to identify thousands of individual peptides.
# Thousands of peptides were identified in pairs (^12C and ^13C) due to their known mass differences. The amino acid sequence and quantitative ratio (Light/Heavy) of a given peptide in two differentially treated cell lysates were then determined and annotated with their possible protein (gene) sources.
# As stated above, three HDAC inhibitors (Compound A, Compound B, and Tubastatin A) were used. Thus, the SILAC method was performed three times, with a different HDAC inhibitor compared to a control each time. Accordingly, there are three pairs of quantitative data in the table below, i.e., Compound A:DMSO, Compound B:DMSO, and Tubastatin A:DMSO. A cut-off of 1.30 fold of change (increase or decrease) was then used to determine “changed” or “+” in the table, and any peptides with a fold of change less than 1.3 fold were determined to be “unchanged” or “0” in the table. Those peptides that were not identified were marked as “NA” in the table. […]
smiles,measurement,setting,value
CN1CCc2c(c3ccccc3n2Cc2ccc(C(=O)NO)cc2)C1 [Tub A],"light to heavy ratio (L/H ratio), log 2 scale, acetylated peptide VGDK(ac)VLLPEYGGTK (SEQ ID NO: 773)","10 kDa heat shock protein mitochondrial [70], gene HSPE1, drug:DMSO",0.00
same,light to heavy ratio (L/H ratio) of acetylated peptide IQEVLK(ac)HAR (SEQ ID NO: 264),"39S ribosomal protein L20 mitochondrial [26], MRPL20, drug:DMSO",0.38 log 2
same,light to heavy ratio (L/H ratio) of acetylated peptide FK(ac)LITEDVQGK (SEQ ID NO: 287),"40S ribosomal protein S3a [85], SNORD73A, RPS3A, drug:DMSO",−0.66 log 2
same,light to heavy ratio (L/H ratio) of acetylated peptide KDVHMPK(ac)HPELADK (SEQ ID NO: 353),"40S ribosomal protein S10 [31], RPS10, drug:DMSO",0.00 log 2
same,light to heavy ratio (L/H ratio) of acetylated peptide NK(ac)IAGYVTHLMK (SEQ ID NO: 559),"40S ribosomal protein S17 [49], gene RPS17, RPS17L, inhibitor:DMSO",0.00 log 2
same,light to heavy ratio (L/H ratio) of acetylated peptide GIVLEK(ac)VGVEAK (SEQ ID NO: 320),"40S ribosomal protein S23 [54], RPS23, drug:DMSO",−0.55 log 2
same,"light to heavy ratio (L/H ratio), log 2 scale, acetylated peptide ALEK(ac)IDLK (SEQ ID NO: 813)","60S ribosomal protein L3 [362], gene SNORD43, RPL3, drug:DMSO",0.00
same,light to heavy ratio (L/H ratio) of acetylated peptide IPK(ac)HLTDAYFK (SEQ ID NO: 259),"60S ribosomal protein L6 [211], RPL6, drug:DMSO",−0.63 log 2
same,light to heavy ratio (L/H ratio) of acetylated peptide GPLDK(ac)WR (SEQ ID NO: 622),"60S ribosomal protein L10-like [208], gene RPL10L, inhibitor:DMSO",0.00 log 2
same,"light to heavy ratio (L/H ratio), log 2 scale, acetylated peptide YMVK(ac)SCGK (SEQ ID NO: 811)","60S ribosomal protein L10 [78], gene SNORA70, RPL10, drug:DMSO",0.00
same,light to heavy ratio (L/H ratio) of acetylated peptide VITEEEK(ac)NFK (SEQ ID NO: 522),"60S ribosomal protein L13 [174], gene RPL13, inhibitor:DMSO",0.00 log 2
same,light to heavy ratio (L/H ratio) of acetylated peptide LAAIVAK(ac)QVLLGR (SEQ ID NO: 505),"60S ribosomal protein L13a [25], gene SNORD32A, RPL13A, SNORD33, SNORD34, inhibitor:DMSO",0.00 log 2
same,light to heavy ratio (L/H ratio) of acetylated peptide K(ac)FAYLGR (SEQ ID NO: 614),"60S ribosomal protein L13a [134], gene SNORD32A, RPL13A, SNORD33, SNORD34, inhibitor:DMSO",0.00 log 2
same,"light to heavy ratio (L/H ratio), log 2 scale, acetylated peptide LAHEVGWK(ac)[…] (SEQ ID NO: 812)","60S ribosomal protein L13a [148], gene SNORD32A, RPL13A, SNORD33, SNORD34, drug:DMSO",0.00
same,light to heavy ratio (L/H ratio) of acetylated peptide RNPDTQWITK(ac)PVHK (SEQ ID NO: 581),"60S ribosomal protein L15 [153], gene RPL15, inhibitor:DMSO",0.00 log 2
same,"light to heavy ratio (L/H ratio), log 2 scale, acetylated peptide YSVDIPLDK(ac)TVVNK (SEQ ID NO: 807)","60S ribosomal protein L27 [93], gene RPL27, drug:DMSO",0.00
same,"light to heavy ratio (L/H ratio), log 2 scale, acetylated peptide TVVNK(ac)DVFR (SEQ ID NO: 766)","60S ribosomal protein L27 [98], gene RPL27, drug:DMSO",0.00
same,light to heavy ratio (L/H ratio) of acetylated peptide NCSSFLIK(ac)R (SEQ ID NO: 558),"60S ribosomal protein L28 [19], gene RPL28, inhibitor:DMSO",0.00 log 2
same,light to heavy ratio (L/H ratio) of acetylated peptide LWSK(ac)AIFAGYK (SEQ ID NO: 538),"60S ribosomal protein L35a [8], gene RPL35A, inhibitor:DMSO",0.00 log 2
same,light to heavy ratio (L/H ratio) of acetylated peptide AIFAGYK(ac)R (SEQ ID NO: 300),"60S ribosomal protein L35a [15], RPL35A, drug:DMSO",0.44 log 2
same,light to heavy ratio (L/H ratio) of acetylated peptide VMEHFIK(ac)LYK (SEQ ID NO: 276),"78 kDa glucose-regulated protein [268], HSPA5, drug:DMSO",−0.66 log 2
same,light to heavy ratio (L/H ratio) of acetylated peptide AK(ac)FEELNMDLFR (SEQ ID NO: 266),"78 kDa glucose-regulated protein [326], HSPA5, drug:DMSO",−0.52 log 2
same,L/H ratio of acetylated peptide,"(ac)AVPPTYADLGK(ac)SAR (SEQ ID NO: 464), Voltage-dependent anion-selective channel protein 1 [12], VDAC1",0.00 log 2
same,"light to heavy ratio (L/H ratio) of acetylated peptide, log 2 scale","(ac)SIGVPIK(ac)VLHEAEGHIVTCETNTGEVYR (SEQ ID NO: 224), Small nuclear ribonucleoprotein Sm D3 [8], SNRPD3",0.40
same,L/H ratio of acetylated peptide,"(ac)SSNECFK(ac)CGR (SEQ ID NO: 379), Isoform 1 of Cellular nucleic acid-binding protein [8], CNBP",0.00 log 2
same,"light to heavy ratio (L/H ratio) of acetylated peptide, log 2 scale","(ac)SVFGK(ac)LFGAGGGK (SEQ ID NO: 143), Charged multivesicular body protein 4b [6], CHMP4B",−0.39
same,L/H ratio of acetylated peptide IHNFGLIQEK(ac)LAR (SEQ ID NO: 19),"ACADVL [428], log 2 scale, drug vs DMSO",−0.60
same,L/H ratio of acetylated peptide NLQK(ac)EVIHR (SEQ ID NO: 125),"ACOX1 [504], log 2 scale, drug vs DMSO",0.54
same,L/H ratio of acetylated peptide LDHLAEK(ac)FR (SEQ ID NO: 20),"ACTN1 [398], log 2 scale, drug vs DMSO",−0.51
same,L/H ratio of acetylated peptide LVDQSGPPHEPK(ac)FVYQAK (SEQ ID NO: 126),"ADAR [757], log 2 scale, drug vs DMSO",−0.41
same,"light to heavy ratio (L/H ratio) of acetylated peptide, log 2 scale","ADINTK(ac)WAATR (SEQ ID NO: 202), Ribosomal protein L14 variant [85], RPL14",−0.50
same,"light to heavy ratio (L/H ratio) of acetylated peptide, log 2 scale","ADK(ac)DYHFK (SEQ ID NO: 191), Isoform 2 of Nucleophosmin [27], NPM1",−0.60
same,light to heavy ratio (L/H ratio) of acetylated peptide IFGSNK(ac)WTTEQQQR (SEQ ID NO: 306),"ADP-ribosylation factor-like protein 6-interacting protein 1 [96], ARL6IP1, drug:DMSO",0.45 log 2
same,light to heavy ratio (L/H ratio) of acetylated peptide TTLLYK(ac)LK (SEQ ID NO: 624),"ADP-ribosylation factor-like protein 11 [31], gene ARL11, inhibitor:DMSO",0.00 log 2
same,light to heavy ratio (L/H ratio) of acetylated peptide IFK(ac)SDGLR (SEQ ID NO: 280),"ADP/ATP translocase 1 [166], SLC25A4, drug:DMSO",0.48 log 2
same,light to heavy ratio (L/H ratio) of acetylated peptide ITK(ac)SDGIR (SEQ ID NO: 587),"ADP/ATP translocase 3 [166], gene SLC25A6, inhibitor:DMSO",0.00 log 2
same,L/H ratio of acetylated peptide HLSDSINQK(ac)HFEQAIER,"AFG3L2 [543], log 2 scale, drug vs DMSO",−0.39
same,"light to heavy ratio (L/H ratio) of acetylated peptide, log 2 scale","AFYK(ac)SFSK (SEQ ID NO: 170), Endoplasmin [360], HSP90B1",−1.00
same,"light to heavy ratio (L/H ratio) of acetylated peptide, log 2 scale","AGVNTVTTLVENK(ac)K (SEQ ID NO: 206), 60S ribosomal protein L7a [150], RPL7A, SNORD24",−0.42
same,"light to heavy ratio (L/H ratio) of acetylated peptide, log 2 scale","AGYNVK(ac)QLFR (SEQ ID NO: 199), Isoform 1 of Ras-related protein Rab-6A [164], RAB6A",0.45
same,"light to heavy ratio (L/H ratio) of acetylated peptide, log 2 scale","AHPVFYQGTYSQALNDAK(ac)R (SEQ ID NO: 153), FAS-associated factor 2 [167], FAF2",−0.48
same,L/H ratio of acetylated peptide LK(ac)DISTLEPLKK (SEQ ID NO: 21),"ANP32B [101], log 2 scale, drug vs DMSO",−0.56
same,L/H ratio of acetylated peptide QRQEVCQSYK(ac)SLYGK (SEQ ID NO: 22),"ANXA6 [63], log 2 scale, drug vs DMSO",0.68
same,L/H ratio of acetylated peptide LGTDESK(ac)FNAVLCSR (SEQ ID NO: 7),"ANXA11 [478], log 2 scale, drug vs DMSO",−0.44
